Here are results for twelve compounds from patent US9867833B2, “Serine/threonine kinase inhibitors” (GENENTECH, INC., priority 2013, dated 2018).

A value given as a limit tells only on which side of the number the result lay.

human ERK-2 (Mitogen Activated Kinase 1), sequence (P28482 8-360): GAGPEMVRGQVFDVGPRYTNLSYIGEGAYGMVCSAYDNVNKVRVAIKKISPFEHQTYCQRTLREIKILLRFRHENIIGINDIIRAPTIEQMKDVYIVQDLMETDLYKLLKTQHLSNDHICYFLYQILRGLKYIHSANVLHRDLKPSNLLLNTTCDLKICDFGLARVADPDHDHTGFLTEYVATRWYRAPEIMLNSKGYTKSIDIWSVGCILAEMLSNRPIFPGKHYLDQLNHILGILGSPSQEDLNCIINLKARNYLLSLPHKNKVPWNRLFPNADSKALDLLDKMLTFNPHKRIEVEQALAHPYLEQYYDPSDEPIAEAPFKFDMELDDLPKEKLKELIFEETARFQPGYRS

The experiment concerns the target human ERK-2 (Mitogen Activated Kinase 1) (Homo sapiens (Human), UniProt P28482). Kind of experiment: ERK-2 Enzymatic Assay. The format is biochemical. The settings on record: human ERK-2 enzyme 5 nM, 25 μM ATP, S/T17 peptide substrate; isomer = configuration of CR2R3. The method in brief: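 Recombinant human ERK-2 (aa 8-360, N-terminal 6-His, E. coli) with 3-fold serially diluted compound. Per-well rates from linear fits converted to percent of control; IC50 by four-parameter fit.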
The compound `Cn1nccc1Nc1nccc(-c2cc3n4c(nnc4c2)[C@@H](Cc2ccc(Cl)c(F)c2)CN3)n1` [(S) I-14, 4-(3-(4-chloro-3-fluorobenzyl)-4,5-dihydro-3H-1,2,2a^1,5-tetraazaacenaphthylen-7-yl)-N-(1-methyl-1H-pyrazol-5-yl)pyrimidin-2-amine] showed an IC50 of less than 20 pM.

The compound `Cn1nccc1Nc1nccc(-c2cc3n4c(nnc4c2)[C@H](Cc2ccccc2)CO3)n1` [(S) I-15, 4-(3-benzyl-3,4-dihydro-5-oxa-1,2,2a^1-triazaacenaphthylen-7-yl)-N-(1-methyl-1H-pyrazol-5-yl)pyrimidin-2-amine] yielded a half-inhibitory concentration (IC50) of 2240 pM.

In turn, `COc1ccc(C[C@H]2CN(C)c3cc(-c4ccnc(Nc5ccnn5C)c4)cc4nnc2n34)cc1` [(S) I-18, 4-(3-(4-methoxybenzyl)-5-methyl-4,5-dihydro-3H-1,2,2a^1,5-tetraazaacenaphthylen-7-yl)-N-(1-methyl-1H-pyrazol-5-yl)pyridin-2-amine] gave an IC50 of 55800 pM.

In the case of `CC(C)C[C@H]1CN(C)c2cc(-c3ccnc(Nc4ccnn4C)c3)cc3nnc1n23` [(S) I-20, 4-(3-isobutyl-5-methyl-4,5-dihydro-3H-1,2,2a^1,5-tetraazaacenaphthylen-7-yl)-N-(1-methyl-1H-pyrazol-5-yl)pyridin-2-amine], 316 pM corresponded to half-maximal inhibition (IC50).

Compound `Cn1nccc1Nc1nccc(-c2cc3n4c(nnc4c2)[C@@H](Cc2ccc(F)cc2)CN3)n1` [(S) I-21, 4-(3-(4-fluorobenzyl)-4,5-dihydro-3H-1,2,2a^1,5-tetraazaacenaphthylen-7-yl)-N-(1-methyl-1H-pyrazol-5-yl)pyrimidin-2-amine] came in with an IC50 of less than 20 pM.

Take `CN1C(=O)C[C@H](Cc2ccc(Cl)cc2)c2nnc3cc(-c4ccnc(Nc5ccnn5C)n4)cc1n23` [(S) I-22, 9-(4-chlorobenzyl)-6-methyl-4-(2-((1-methyl-1H-pyrazol-5-yl)amino)pyrimidin-4-yl)-8,9-dihydro-1,2,2a^1,6-tetraazabenzo[cd]azulen-7(6H)-one]: the IC50 was less than 20 pM.

For the compound `COc1ccc(C[C@H]2CNc3cc(-c4ccnc(Nc5ccnn5C)n4)cc4nnc2n34)cn1` [(S) I-24, 4-(3-((6-methoxypyridin-3-yl)methyl)-4,5-dihydro-3H-1,2,2a^1,5-tetraazaacenaphthylen-7-yl)-N-(1-methyl-1H-pyrazol-5-yl)pyrimidin-2-amine], the IC50 is less than 20 pM.

For `Cn1nccc1Nc1nccc(-c2cc3n4c(nnc4c2)[C@@H](COCc2ccccc2)CCO3)n1` [(S) I-29, 4-(9-((benzyloxy)methyl)-8,9-dihydro-7H-6-oxa-1,2,2a^1-triazabenzo[cd]azulen-4-yl)-N-(1-methyl-1H-pyrazol-5-yl)pyrimidin-2-amine], the IC50 is less than 20 pM.

In turn, `Cn1nccc1Nc1cc(-c2cc3n4c(nnc4c2)[C@@H](Cc2ccccc2Cl)CCO3)ccn1` [(S) I-30, 4-(9-(2-chlorobenzyl)-8,9-dihydro-7H-6-oxa-1,2,2a^1-triazabenzo[cd]azulen-4-yl)-N-(1-methyl-1H-pyrazol-5-yl)pyridin-2-amine] registered an IC50 of less than 20 pM.

`CN1C[C@H](Cc2ccc(F)cc2)c2nnc3cc(-c4ccnc(Nc5ccnn5C)n4)cc1n23` [(S) I-31, 4-(3-(4-fluorobenzyl)-5-methyl-4,5-dihydro-3H-1,2,2a^1,5-tetraazaacenaphthylen-7-yl)-N-(1-methyl-1H-pyrazol-5-yl)pyrimidin-2-amine] registered an IC50 of less than 20 pM.

On to `Cn1nccc1Nc1nccc(-c2cc3n4c(nnc4c2)[C@@H](Cc2ccc(Cl)cc2)CCO3)n1` [(S) I-36, 4-(9-(4-chlorobenzyl)-8,9-dihydro-7H-6-oxa-1,2,2a^1-triazabenzo[cd]azulen-4-yl)-N-(1-methyl-1H-pyrazol-5-yl)pyrimidin-2-amine], for which the IC50 was less than 20 pM.

As for `Cn1nccc1Nc1cc(-c2cc3n4c(nnc4c2)[C@H](Cc2ccccc2)CO3)ccn1` [(S) I-38, 4-(3-benzyl-3,4-dihydro-5-oxa-1,2,2a^1-triazaacenaphthylen-7-yl)-N-(1-methyl-1H-pyrazol-5-yl)pyridin-2-amine], the IC50 turned out to be 4340 pM.
